{
  "source": "patent US20100298141A1",
  "about": "“SUBSTITUTED PYRIDINE N-OXIDE HERBICIDES” (E. I. DU PONT DE NEMOURS AND COMPANY, priority 2007, published 2010)",
  "key": {"naked crabgrass": {"system": "naked crabgrass", "assay": "Test F preemergence test", "format": "in vivo, Digitaria nuda", "details": "scale 0 to 100", "in_short": "(§1)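 Visual ratings relative to controls, taken after 14 to 21 days in a greenhouse. Test chemicals, formulated in a surfactant-containing non-phytotoxic solvent mixture, were applied preemergence to sown seeds or postemergence to sugarcane plants.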"}, "guineagrass": {"system": "guineagrass", "assay": "Test F preemergence test", "format": "in vivo, Panicum maximum", "details": "scale 0 to 100", "in_short": "as §1"}, "pitted morningglory": {"system": "pitted morningglory", "assay": "Test F preemergence test", "format": "in vivo, Ipomoea lacunosa", "details": "scale 0 to 100", "in_short": "as §1"}, "prickly sida": {"system": "prickly sida", "assay": "Test F preemergence test", "format": "in vivo, Sida spinosa", "details": "scale 0 to 100", "in_short": "as §1"}, "Canada horseweed": {"system": "Canada horseweed", "assay": "Test F preemergence test", "format": "in vivo, Conyza canadensis", "details": "scale 0 to 100", "in_short": "as §1"}, "common purslane": {"system": "common purslane", "assay": "Test F preemergence test", "format": "in vivo, Portulaca oleracea", "details": "scale 0 to 100", "in_short": "as §1"}, "spanishneedles": {"system": "spanishneedles", "assay": "Test F preemergence test", "format": "in vivo, Bidens bipinnata", "details": "scale 0 to 100; for Spanishneedles plant response rating: preemergence; for Plant response rating, Spanishneedles: Preemergence", "in_short": "as §1"}, "annual bluegrass": {"system": "annual bluegrass", "assay": "Test F preemergence test", "format": "in vivo, Poa annua", "details": "scale 0 to 100", "in_short": "as §1"}, "common groundsel": {"system": "common groundsel", "assay": "Test F preemergence test", "format": "in vivo, Senecio vulgaris", "details": "scale 0 to 100", "in_short": "as §1"}, "green foxtail": {"system": "green foxtail", "assay": "Test F preemergence test", "format": "in vivo, Setaria viridis", "details": "scale 0 to 100", "in_short": "as §1"}, "itchgrass": {"system": "itchgrass", "assay": "Test F preemergence test", "format": "in vivo, Rottboellia cochinchinensis", "details": "scale 0 to 100", "in_short": "as §1"}, "field bindweed": {"system": "field bindweed", "assay": "Test F preemergence test", "format": "in vivo, Convolvulus arvensis", "details": "scale 0 to 100", "in_short": "as §1"}, "johnsongrass": {"system": "johnsongrass", "assay": "Test F preemergence test", "format": "in vivo, Sorghum halepense", "details": "scale 0 to 100", "in_short": "as §1"}, "common sowthistle": {"system": "common sowthistle", "assay": "Test F preemergence test", "format": "in vivo, Sonchus oleraceous", "details": "scale 0 to 100; for Sowthistle plant response rating: preemergence; for Plant response rating, Sowthistle: Preemergence", "in_short": "as §1"}, "common mallow": {"system": "common mallow", "assay": "Test F preemergence test", "format": "in vivo, Malva sylvestris", "details": "scale 0 to 100", "in_short": "as §1"}, "dallisgrass": {"system": "dallisgrass", "assay": "Test F preemergence test", "format": "in vivo, Paspalum dilatatum", "details": "scale 0 to 100", "in_short": "as §1"}, "winter barley": {"system": "winter barley", "assay": "Test C postemergence test", "format": "in vivo, Hordeum vulgare", "details": "for Plant response rating, Barley: scale 0 to 100, 0 no effect, 100 complete control", "description": "(§2) At the same time, plants selected from these crop and weed species and also winter barley (Hordeum vulgare), canarygrass (Phalaris minor), and chickweed (Stellaria media) were treated with postemergence applications of some of the test chemicals formulated in the same manner. Plants ranged in height from 2 to 18 cm (1- to 4-leaf stage) for postemergence treatments. […] At time of treatment, test pots were flooded to 3 cm above the soil surface, treated by application of test compounds directly to the paddy water, and then maintained at that water depth for the duration of the test. Treated plants and controls were maintained in a greenhouse for 13 to 15 days, after which time all species were compared to controls and visually evaluated. […] A dash (-) response means no test result."}, "chickweed": {"system": "chickweed", "assay": "Test C postemergence test", "format": "in vivo, Stellaria media", "details": "for Plant response rating, Chickweed: scale 0 to 100, 0 no effect, 100 complete control", "description": "as §2"}},
  "data": [
    {"compound": "Cn1nc(C(F)(F)F)c(C[S+]([O-])c2ccc(F)c[n+]2[O-])c1OC(F)F", "note": "(stereo not shown) [Compound 58]", "values": [
      {"measurement": "Crabgrass, Naked plant response rating", "setting": "naked crabgrass; 62 g ai/ha, Preemergence", "value": 100},
      {"measurement": "Crabgrass, Naked plant response rating", "setting": "naked crabgrass; 125 g ai/ha, preemergence", "value": 100},
      {"measurement": "Crabgrass, Naked plant response rating", "setting": "naked crabgrass; 250 g ai/ha, preemergence", "value": 100},
      {"measurement": "Plant response rating, Crabgrass, Naked", "setting": "naked crabgrass; Preemergence, 31 g ai/ha", "value": 75},
      {"measurement": "Guineagrass plant response rating", "setting": "guineagrass; 62 g ai/ha, Preemergence", "value": 100},
      {"measurement": "Guineagrass plant response rating", "setting": "guineagrass; 125 g ai/ha, preemergence", "value": 100},
      {"measurement": "Guineagrass plant response rating", "setting": "guineagrass; 250 g ai/ha, preemergence", "value": 100},
      {"measurement": "Plant response rating, Guineagrass", "setting": "guineagrass; Preemergence, 31 g ai/ha", "value": 90},
      {"measurement": "Morningglory plant response rating", "setting": "pitted morningglory; 62 g ai/ha, Preemergence", "value": 70},
      {"measurement": "Morningglory plant response rating", "setting": "pitted morningglory; 125 g ai/ha, preemergence", "value": 100},
      {"measurement": "Morningglory plant response rating", "setting": "pitted morningglory; 250 g ai/ha, preemergence", "value": 100},
      {"measurement": "Plant response rating, Morningglory", "setting": "pitted morningglory; Preemergence, 31 g ai/ha", "value": 50},
      {"measurement": "Prickly Sida plant response rating", "setting": "prickly sida; 62 g ai/ha, Preemergence", "value": 65},
      {"measurement": "Prickly Sida plant response rating", "setting": "prickly sida; 125 g ai/ha, preemergence", "value": 95},
      {"measurement": "Prickly Sida plant response rating", "setting": "prickly sida; 250 g ai/ha, preemergence", "value": 98},
      {"measurement": "Plant response rating, Prickly Sida", "setting": "prickly sida; Preemergence, 31 g ai/ha", "value": 0},
      {"measurement": "Horseweed plant response rating", "setting": "Canada horseweed; 62 g ai/ha, Preemergence", "value": 98},
      {"measurement": "Horseweed plant response rating", "setting": "Canada horseweed; 125 g ai/ha, preemergence", "value": 98},
      {"measurement": "Horseweed plant response rating", "setting": "Canada horseweed; 250 g ai/ha, preemergence", "value": 100},
      {"measurement": "Plant response rating, Horseweed", "setting": "Canada horseweed; Preemergence, 31 g ai/ha", "value": 98},
      {"measurement": "Purslane plant response rating", "setting": "common purslane; 62 g ai/ha, Preemergence", "value": 25},
      {"measurement": "Purslane plant response rating", "setting": "common purslane; 125 g ai/ha, preemergence", "value": 80},
      {"measurement": "Purslane plant response rating", "setting": "common purslane; 250 g ai/ha, preemergence", "value": 100},
      {"measurement": "Plant response rating, Purslane", "setting": "common purslane; Preemergence, 31 g ai/ha", "value": 0},
      {"measurement": "Spanishneedles plant response rating", "setting": "spanishneedles; 125 g ai/ha", "value": 65},
      {"measurement": "Spanishneedles plant response rating", "setting": "spanishneedles; 250 g ai/ha", "value": 100},
      {"measurement": "Plant response rating, Spanishneedles", "setting": "spanishneedles; 62 g ai/ha", "value": 50},
      {"measurement": "Plant response rating, Spanishneedles", "setting": "spanishneedles; 31 g ai/ha", "value": 50},
      {"measurement": "Bluegrass plant response rating", "setting": "annual bluegrass; 62 g ai/ha, Preemergence", "value": 70},
      {"measurement": "Bluegrass plant response rating", "setting": "annual bluegrass; 125 g ai/ha, preemergence", "value": 95},
      {"measurement": "Bluegrass plant response rating", "setting": "annual bluegrass; 250 g ai/ha, preemergence", "value": 100},
      {"measurement": "Plant response rating, Bluegrass", "setting": "annual bluegrass; Preemergence, 31 g ai/ha", "value": 0},
      {"measurement": "Groundsel plant response rating", "setting": "common groundsel; 62 g ai/ha, Preemergence", "value": 60},
      {"measurement": "Groundsel plant response rating", "setting": "common groundsel; 125 g ai/ha, preemergence", "value": 85},
      {"measurement": "Groundsel plant response rating", "setting": "common groundsel; 250 g ai/ha, preemergence", "value": 100},
      {"measurement": "Plant response rating, Groundsel", "setting": "common groundsel; Preemergence, 31 g ai/ha", "value": 20},
      {"measurement": "Foxtail, Green plant response rating", "setting": "green foxtail; 62 g ai/ha, Preemergence", "value": 95},
      {"measurement": "Foxtail, Green plant response rating", "setting": "green foxtail; 125 g ai/ha, preemergence", "value": 100},
      {"measurement": "Foxtail, Green plant response rating", "setting": "green foxtail; 250 g ai/ha, preemergence", "value": 100},
      {"measurement": "Plant response rating, Foxtail, Green", "setting": "green foxtail; Preemergence, 31 g ai/ha", "value": 60},
      {"measurement": "Itchgrass plant response rating", "setting": "itchgrass; 62 g ai/ha, Preemergence", "value": 75},
      {"measurement": "Itchgrass plant response rating", "setting": "itchgrass; 125 g ai/ha, preemergence", "value": 90},
      {"measurement": "Itchgrass plant response rating", "setting": "itchgrass; 250 g ai/ha, preemergence", "value": 100},
      {"measurement": "Plant response rating, Itchgrass", "setting": "itchgrass; Preemergence, 31 g ai/ha", "value": 35},
      {"measurement": "Field Bindweed plant response rating", "setting": "field bindweed; 62 g ai/ha, Preemergence", "value": 0},
      {"measurement": "Field Bindweed plant response rating", "setting": "field bindweed; 125 g ai/ha, preemergence", "value": 20},
      {"measurement": "Field Bindweed plant response rating", "setting": "field bindweed; 250 g ai/ha, preemergence", "value": 65},
      {"measurement": "Plant response rating, Field Bindweed", "setting": "field bindweed; Preemergence, 31 g ai/ha", "value": 0},
      {"measurement": "Johnsongrass plant response rating", "setting": "johnsongrass; 62 g ai/ha, Preemergence", "value": 90},
      {"measurement": "Johnsongrass plant response rating", "setting": "johnsongrass; 125 g ai/ha, preemergence", "value": 100},
      {"measurement": "Johnsongrass plant response rating", "setting": "johnsongrass; 250 g ai/ha, preemergence", "value": 100},
      {"measurement": "Plant response rating, Johnsongrass", "setting": "johnsongrass; Preemergence, 31 g ai/ha", "value": 80},
      {"measurement": "Sowthistle plant response rating", "setting": "common sowthistle; 125 g ai/ha", "value": 100},
      {"measurement": "Sowthistle plant response rating", "setting": "common sowthistle; 250 g ai/ha", "value": 100},
      {"measurement": "Plant response rating, Sowthistle", "setting": "common sowthistle; 62 g ai/ha", "value": 100},
      {"measurement": "Plant response rating, Sowthistle", "setting": "common sowthistle; 31 g ai/ha", "value": 0},
      {"measurement": "Mallow plant response rating", "setting": "common mallow; 62 g ai/ha, Preemergence", "value": 25},
      {"measurement": "Mallow plant response rating", "setting": "common mallow; 125 g ai/ha, preemergence", "value": 90},
      {"measurement": "Mallow plant response rating", "setting": "common mallow; 250 g ai/ha, preemergence", "value": 100},
      {"measurement": "Dallisgrass plant response rating", "setting": "dallisgrass; 62 g ai/ha, Preemergence", "value": 90},
      {"measurement": "Dallisgrass plant response rating", "setting": "dallisgrass; 125 g ai/ha, preemergence", "value": 98},
      {"measurement": "Dallisgrass plant response rating", "setting": "dallisgrass; 250 g ai/ha, preemergence", "value": 98},
      {"measurement": "Plant response rating, Dallisgrass", "setting": "dallisgrass; Preemergence, 31 g ai/ha", "value": 75},
      {"measurement": "Plant response rating (0 to 100), Barley", "setting": "winter barley; 31 g ai/ha", "value": 0},
      {"measurement": "Plant response rating, Barley", "setting": "winter barley; 62 g ai/ha", "value": 0},
      {"measurement": "Plant response rating, Barley", "setting": "winter barley; 125 g ai/ha", "value": 20},
      {"measurement": "Plant response rating, Barley", "setting": "winter barley; 250 g ai/ha", "value": 30},
      {"measurement": "Plant response rating (0 to 100), Chickweed", "setting": "chickweed; 31 g ai/ha", "value": 30},
      {"measurement": "Plant response rating, Chickweed", "setting": "chickweed; 62 g ai/ha", "value": 60},
      {"measurement": "Plant response rating, Chickweed", "setting": "chickweed; 125 g ai/ha", "value": 60}
    ]}
  ]
}
